From ChEMBL document CHEMBL4118139, “Novel naphthyloxy derivatives - Potent histamine H3 receptor ligands. Synthesis and pharmacological evaluation” (Bioorg Med Chem, 2018)
Activity calls are given as the source filed them. No cut-off for these calls is given here.

Columns and labels:
Mus musculus [1] = assay: Anticonvulsant activity in ip dosed albino CF-1 mouse assessed as protection against 32 mA current-induced seizure after 1 hr by 6 Hz psychomotor test; type: functional; details: CF-1, ip
Mus musculus [2] = assay: Anticonvulsant activity in ip dosed albino CF-1 mouse assessed as protection against maximal electroshock-induced seizures after 1 hr; type: functional; details: CF-1, ip
[3] = Neurotoxicity in ip dosed albino CF-1 mouse after 0.25 hrs by rotarod test; type: toxicity, organism-based; details: in vivo
Mus musculus [4] = assay: Anticonvulsant activity in ip dosed albino CF-1 mouse assessed as protection against subcutaneous pentylenetetrazole-induced seizures measured after 1 hr; type: functional; details: CF-1, 1 h
Mus musculus [5] = assay: Anticonvulsant activity in ip dosed albino CF-1 mouse assessed as protection against 44 mA current-induced seizure after 0.25 hrs by 6 Hz psychomotor test; type: functional; details: CF-1, ip
[6] = Therapeutic index, ratio of ip dosed albino CF-1 mouse TD50 to ip dosed albino CF-1 mouse ED50 for MES assay; type: toxicity, organism-based; details: in vivo, read-out: TI
Histamine H3 receptor [7] = biological target: T1, Histamine H3 receptor (Homo sapiens, UniProt Q9Y5N1); assay: Displacement of [3H]N-alpha-methylhistamine from full length human H3 receptor expressed in HEK293 cell membranes after 90 mins
HepG2 = assay: Cytotoxicity against human HepG2 cells assessed as reduction in cell viability after 72 hrs by MTS assay; type: cell-based; details: HepG2, 72 h
Salmonella typhimurium [8] = assay: Mutagenicity in Salmonella typhimurium TA100 assessed as increase in number of revertants at 10 uM after 90 mins by Ames test; type: toxicity, organism-based; details: salmonella enterica subsp. enterica serovar typhimurium, 1.5 h
Salmonella typhimurium [9] = assay: Mutagenicity in Salmonella typhimurium TA100 assessed as increase in number of revertants at 1 uM after 90 mins by Ames test; type: toxicity, organism-based; details: salmonella enterica subsp. enterica serovar typhimurium, 1.5 h
IMR-32 = assay: Cytotoxicity against human IMR32 cells assessed as reduction in cell viability after 72 hrs by MTS assay; type: cell-based; details: IMR-32, 72 h
CYP3A4 = CYP3A4 (Homo sapiens, UniProt P08684); assay: Inhibition of CYP3A4 (unknown origin) at 25 uM by CYP3A4 P450-Glo assay; type: ADME
HEK293 = assay: Cytotoxicity against HEK293 cells assessed as reduction in cell viability after 72 hrs by MTS assay; type: cell-based; details: Homo sapiens, HEK293, 72 h
Rattus norvegicus [10] = assay: In vivo antagonist activity at H3 receptor in RAMH-induced dipsogenic Wistar (Krf:(WI) WU) rat model assessed as inhibition of RAMH-water intake at 1.25 mg/kg, ip administered 30 mins prior to RAMH induction; type: functional
Mus musculus [11] = assay: Analgesic activity in ip dosed albino Swiss CD1 mouse assessed reduction in formalin-induced inflammatory pain by measuring reduction in time spent in licking pretreated prior to formalin injection measured at 15 to 30 mins post formalin injection; type: functional
Mus musculus [12] = assay: (§1) Cognition enhancing effect in albino Swiss CD-1 mouse assessed as reversal of scopolamine-induced amnesia by measuring latency time at 15 mg/kg, ip treated 30 mins prior to acquisition trial followed by scopolamine challenge immediately after acquisition trial by passive avoidance test (reference value: 39.31 +/- 4.01 secs); type: functional
Mus musculus [13] = assay: Effect on spontaneous locomotor activity in ip dosed albino Swiss CD1 mouse assessed as inhibition of number of light beam crossings treated for 30 mins measured for next 30 mins in 10 min intervals; type: organism-based; details: in vivo, 0.5 h
Histamine H3 receptor [14] = biological target: T1, Histamine H3 receptor; assay: Displacement of […] from full length recombinant human H3 receptor expressed in HEK293 cell membranes after 90 mins by scintillation counting method
Mus musculus [15] = assay: Analgesic activity in ip dosed albino Swiss CD1 mouse assessed reduction in formalin-induced inflammatory pain by measuring reduction in time spent in licking treated prior to formalin injection measured at 0 to 5 mins post formalin injection; type: functional
Mus musculus [16] = assay: as §1, with “30” for “15”; type: functional
Histamine H3 receptor [17] = biological target: Histamine H3 receptor (Rattus norvegicus, UniProt Q9QYN8); assay: Displacement of [3H]-(R)alpha-MeHA from rat brain H3 receptor
[18] = biological target: Histamine H1 receptor (Homo sapiens) (UniProt P35367); assay: Displacement of [3H]-pyrilamine from human histamine H1 receptor expressed in CHO cell membranes at 1 uM relative to chlorpheniramine
[19] = biological target: Histamine H4 receptor (Homo sapiens) (UniProt Q9H3N8); assay: Displacement of [3H]-Histamine from human histamine H4 receptor expressed in insect sf9 cell membranes at 1 uM relative to JNJ-7777120
Histamine H3 receptor [20] = biological target: T1, Histamine H3 receptor; assay: Antagonist activity at human H3 receptor expressed in HEK293 cells assessed as inhibition of RAMH-induced reduction of forskolin-stimulated cAMP accumulation after 30 mins by Ulight-based TR-FRET assay; type: functional, cell-based
[21] = biological target: D(1A) dopamine receptor (Homo sapiens) (UniProt P21728); assay: Displacement of [3H]-SCH23390 from human dopamine D1 receptor expressed in HEK293 cell membranes at 1 uM relative to fluphenazin
[22] = biological target: 5-hydroxytryptamine receptor 6 (Homo sapiens, UniProt P50406); assay: Displacement of [3H]-LSD from human 5-HT6 receptor expressed in HEK293 cell membranes after 1 hr
Mus musculus [23] = assay: as §1, with “amnesia” for “amnesia by measuring latency time”, “20 to 30” for “15”; type: functional, organism-based
[24] = biological target: 5-hydroxytryptamine receptor 7 (Homo sapiens, UniProt P34969); assay: Displacement of [3H]-5-carboxyamidotryptamine from human 5-HT7 receptor expressed in HEK293 cell membranes after 1 hr
[25] = biological target: D(2) dopamine receptor (Homo sapiens) (UniProt P14416); assay: Displacement of [3H]-spiperone from human dopamine D2 receptor expressed in CHO cell membranes at 1 uM relative to haloperidol
Histamine H1 receptor = Histamine H1 receptor (Cavia porcellus, UniProt P31389); assay: Antagonist potency at histamine H1 receptor in guinea-pig ileum assessed as inhibition of histamine-induced contractions at 0.3 to 3 uM after 15 mins; type: functional; details: read-out: pA2 (converted)
Rattus norvegicus [26] = assay: In vivo antagonist activity at H3 receptor in RAMH-induced dipsogenic ip dosed Wistar (Krf:(WI) WU) rat model assessed as inhibition of RAMH-water intake administered 30 mins prior to RAMH induction; type: functional
[27] = biological target: Muscarinic acetylcholine receptor M3 (Cavia porcellus) (UniProt Q8VH26); assay: Agonist activity at muscarinic M3 receptor in guinea-pig ileum assessed as induction of contractions at 1 to 3 uM after 15 mins; type: functional
[28] = biological target: 5-hydroxytryptamine receptor 2A (Homo sapiens, UniProt P28223); assay: Displacement of [3H]-ketanserin from human 5-HT2A receptor expressed in CHO cell membranes after 1 hr
[29] = biological target: D(3) dopamine receptor (Homo sapiens) (UniProt P35462); assay: Displacement of [3H]-spiperone from human dopamine D3 receptor expressed in CHO cell membranes at 1 uM relative to haloperidol
Mus musculus [30] = assay: as §1, with “10” for “15”; type: functional
[31] = biological target: Histamine H1 receptor (Cavia porcellus) (UniProt P31389); assay: Agonist activity at histamine H1 receptor in guinea-pig ileum assessed as induction of contractions at 1 to 3 uM after 15 mins; type: functional
[32] = biological target: D(1B) dopamine receptor (Homo sapiens) (UniProt P21918); assay: Displacement of [3H]-SCH23390 from human dopamine D5 receptor expressed in HEK293 cell membranes at 1 uM relative to fluphenazin
[33] = biological target: Histamine H1 receptor (Cavia porcellus) (UniProt P31389); assay: Antagonist activity at histamine H1 receptor in guinea-pig ileum assessed as inhibition of histamine-induced contractions after 15 mins; type: functional

T1 sequence (Q9Y5N1 whole entry): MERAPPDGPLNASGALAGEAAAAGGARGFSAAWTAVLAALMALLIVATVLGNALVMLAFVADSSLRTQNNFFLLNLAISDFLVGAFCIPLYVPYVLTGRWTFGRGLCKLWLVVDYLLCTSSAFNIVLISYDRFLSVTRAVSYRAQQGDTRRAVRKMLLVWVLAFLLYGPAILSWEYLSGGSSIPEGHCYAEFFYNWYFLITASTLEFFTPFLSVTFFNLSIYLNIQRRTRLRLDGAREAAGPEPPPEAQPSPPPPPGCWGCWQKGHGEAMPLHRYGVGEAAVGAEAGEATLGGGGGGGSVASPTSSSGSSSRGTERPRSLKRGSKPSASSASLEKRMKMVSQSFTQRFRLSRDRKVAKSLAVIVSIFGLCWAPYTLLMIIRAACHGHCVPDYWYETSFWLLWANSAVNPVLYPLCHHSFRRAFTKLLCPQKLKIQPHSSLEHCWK
Chain of Histamine H1 receptor (Cavia porcellus) (P31389 whole entry): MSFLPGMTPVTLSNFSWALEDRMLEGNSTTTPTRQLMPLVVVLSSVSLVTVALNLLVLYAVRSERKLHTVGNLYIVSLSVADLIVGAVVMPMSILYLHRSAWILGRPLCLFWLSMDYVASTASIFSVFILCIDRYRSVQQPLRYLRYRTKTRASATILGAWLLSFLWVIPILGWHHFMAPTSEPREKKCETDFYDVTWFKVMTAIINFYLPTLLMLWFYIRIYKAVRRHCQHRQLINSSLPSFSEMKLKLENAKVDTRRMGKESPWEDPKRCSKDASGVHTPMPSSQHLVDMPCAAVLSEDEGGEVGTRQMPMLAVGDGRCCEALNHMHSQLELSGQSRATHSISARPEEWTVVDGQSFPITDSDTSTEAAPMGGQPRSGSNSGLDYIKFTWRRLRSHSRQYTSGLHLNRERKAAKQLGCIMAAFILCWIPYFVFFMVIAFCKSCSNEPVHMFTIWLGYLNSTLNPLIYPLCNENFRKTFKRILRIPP
Chain of CYP3A4 (P08684 whole entry): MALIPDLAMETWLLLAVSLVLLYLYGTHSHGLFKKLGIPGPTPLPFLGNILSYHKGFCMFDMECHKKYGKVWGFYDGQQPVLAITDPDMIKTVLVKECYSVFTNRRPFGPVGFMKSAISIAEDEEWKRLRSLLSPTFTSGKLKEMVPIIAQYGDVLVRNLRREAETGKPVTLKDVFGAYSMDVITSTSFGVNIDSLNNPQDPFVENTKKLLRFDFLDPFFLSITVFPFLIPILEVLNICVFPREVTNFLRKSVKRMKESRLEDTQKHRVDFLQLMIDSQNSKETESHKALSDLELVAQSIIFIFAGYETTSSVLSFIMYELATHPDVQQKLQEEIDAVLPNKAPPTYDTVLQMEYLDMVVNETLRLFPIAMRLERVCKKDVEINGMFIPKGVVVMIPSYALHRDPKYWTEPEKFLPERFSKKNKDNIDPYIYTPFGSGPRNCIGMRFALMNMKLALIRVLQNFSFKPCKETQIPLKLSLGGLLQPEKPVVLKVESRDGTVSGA
Chain of D(1B) dopamine receptor (Homo sapiens) (P21918 whole entry): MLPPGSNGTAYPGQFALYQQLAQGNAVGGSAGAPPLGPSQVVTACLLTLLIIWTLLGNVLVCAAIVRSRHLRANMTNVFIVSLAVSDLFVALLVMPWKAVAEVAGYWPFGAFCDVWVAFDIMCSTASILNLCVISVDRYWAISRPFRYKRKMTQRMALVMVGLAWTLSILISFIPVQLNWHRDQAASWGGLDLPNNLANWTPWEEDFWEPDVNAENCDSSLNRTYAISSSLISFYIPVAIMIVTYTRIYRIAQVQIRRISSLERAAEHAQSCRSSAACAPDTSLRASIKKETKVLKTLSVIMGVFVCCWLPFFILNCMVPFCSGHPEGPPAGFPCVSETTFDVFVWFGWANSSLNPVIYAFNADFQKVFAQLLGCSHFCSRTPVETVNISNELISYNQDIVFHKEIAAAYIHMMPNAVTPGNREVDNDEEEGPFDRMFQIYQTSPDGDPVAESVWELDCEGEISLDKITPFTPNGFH
Chain of 5-hydroxytryptamine receptor 6 (P50406 whole entry): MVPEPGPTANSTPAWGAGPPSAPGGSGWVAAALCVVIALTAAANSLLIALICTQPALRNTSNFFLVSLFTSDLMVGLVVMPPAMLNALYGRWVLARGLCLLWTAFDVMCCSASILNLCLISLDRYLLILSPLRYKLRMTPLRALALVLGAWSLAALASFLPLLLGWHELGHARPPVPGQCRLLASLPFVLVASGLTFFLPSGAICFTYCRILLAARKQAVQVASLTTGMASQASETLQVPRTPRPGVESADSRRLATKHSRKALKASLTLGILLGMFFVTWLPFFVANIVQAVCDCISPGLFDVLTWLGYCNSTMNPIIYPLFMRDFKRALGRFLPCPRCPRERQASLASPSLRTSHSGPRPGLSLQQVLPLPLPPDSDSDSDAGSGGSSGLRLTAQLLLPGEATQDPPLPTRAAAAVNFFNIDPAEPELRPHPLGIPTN
Chain of D(3) dopamine receptor (Homo sapiens) (P35462 whole entry): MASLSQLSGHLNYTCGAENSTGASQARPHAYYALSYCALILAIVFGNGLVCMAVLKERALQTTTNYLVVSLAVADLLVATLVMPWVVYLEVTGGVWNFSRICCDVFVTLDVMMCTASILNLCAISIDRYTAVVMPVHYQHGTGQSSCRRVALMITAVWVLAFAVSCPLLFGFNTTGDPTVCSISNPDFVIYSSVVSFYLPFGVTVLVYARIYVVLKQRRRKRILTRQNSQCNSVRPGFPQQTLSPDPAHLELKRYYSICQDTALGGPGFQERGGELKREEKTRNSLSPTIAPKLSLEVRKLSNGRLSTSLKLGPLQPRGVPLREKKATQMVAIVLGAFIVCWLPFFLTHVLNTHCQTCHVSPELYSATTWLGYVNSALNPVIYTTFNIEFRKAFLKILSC
Chain of D(1A) dopamine receptor (Homo sapiens) (P21728 whole entry): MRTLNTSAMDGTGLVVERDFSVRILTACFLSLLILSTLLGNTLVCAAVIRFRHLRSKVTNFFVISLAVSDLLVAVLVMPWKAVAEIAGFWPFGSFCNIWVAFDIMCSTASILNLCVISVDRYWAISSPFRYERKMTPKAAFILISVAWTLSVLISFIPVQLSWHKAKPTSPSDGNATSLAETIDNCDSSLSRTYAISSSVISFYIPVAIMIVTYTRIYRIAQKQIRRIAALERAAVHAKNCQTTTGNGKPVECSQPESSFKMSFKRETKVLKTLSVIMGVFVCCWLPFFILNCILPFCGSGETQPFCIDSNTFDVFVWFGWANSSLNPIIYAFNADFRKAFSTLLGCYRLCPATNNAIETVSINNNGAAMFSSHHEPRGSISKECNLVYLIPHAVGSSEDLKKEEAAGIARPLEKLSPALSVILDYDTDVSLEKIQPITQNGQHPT
Chain of Histamine H3 receptor (Rattus norvegicus, UniProt Q9QYN8) (Q9QYN8 whole entry): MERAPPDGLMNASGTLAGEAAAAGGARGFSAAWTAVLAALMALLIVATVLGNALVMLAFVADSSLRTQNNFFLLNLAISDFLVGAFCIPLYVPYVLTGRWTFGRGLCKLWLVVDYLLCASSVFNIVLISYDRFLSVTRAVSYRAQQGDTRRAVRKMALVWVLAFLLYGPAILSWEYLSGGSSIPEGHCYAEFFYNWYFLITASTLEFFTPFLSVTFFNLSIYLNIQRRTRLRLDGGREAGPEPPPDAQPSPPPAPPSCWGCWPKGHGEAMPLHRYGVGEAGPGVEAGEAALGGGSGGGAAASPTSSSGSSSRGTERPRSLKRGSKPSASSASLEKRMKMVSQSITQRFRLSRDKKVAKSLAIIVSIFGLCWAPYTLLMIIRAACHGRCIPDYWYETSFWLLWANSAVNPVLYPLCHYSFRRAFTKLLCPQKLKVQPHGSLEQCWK
Chain of 5-hydroxytryptamine receptor 7 (P34969 whole entry): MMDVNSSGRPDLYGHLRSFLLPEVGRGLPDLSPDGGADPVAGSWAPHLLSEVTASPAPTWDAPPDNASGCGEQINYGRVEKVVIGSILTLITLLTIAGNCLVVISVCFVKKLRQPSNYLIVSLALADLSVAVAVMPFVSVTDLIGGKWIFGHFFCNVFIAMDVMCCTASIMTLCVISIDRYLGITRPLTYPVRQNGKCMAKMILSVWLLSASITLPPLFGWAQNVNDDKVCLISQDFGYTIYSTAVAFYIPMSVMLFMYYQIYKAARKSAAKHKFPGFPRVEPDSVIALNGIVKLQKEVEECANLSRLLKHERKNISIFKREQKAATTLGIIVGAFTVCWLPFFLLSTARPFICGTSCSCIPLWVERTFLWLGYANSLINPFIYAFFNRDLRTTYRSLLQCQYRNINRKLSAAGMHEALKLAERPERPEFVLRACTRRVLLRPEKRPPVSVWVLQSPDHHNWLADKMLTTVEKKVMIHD
Chain of Histamine H1 receptor (P31389 whole entry): as the sequence (P31389 whole entry) above
Chain of D(2) dopamine receptor (Homo sapiens) (P14416 whole entry): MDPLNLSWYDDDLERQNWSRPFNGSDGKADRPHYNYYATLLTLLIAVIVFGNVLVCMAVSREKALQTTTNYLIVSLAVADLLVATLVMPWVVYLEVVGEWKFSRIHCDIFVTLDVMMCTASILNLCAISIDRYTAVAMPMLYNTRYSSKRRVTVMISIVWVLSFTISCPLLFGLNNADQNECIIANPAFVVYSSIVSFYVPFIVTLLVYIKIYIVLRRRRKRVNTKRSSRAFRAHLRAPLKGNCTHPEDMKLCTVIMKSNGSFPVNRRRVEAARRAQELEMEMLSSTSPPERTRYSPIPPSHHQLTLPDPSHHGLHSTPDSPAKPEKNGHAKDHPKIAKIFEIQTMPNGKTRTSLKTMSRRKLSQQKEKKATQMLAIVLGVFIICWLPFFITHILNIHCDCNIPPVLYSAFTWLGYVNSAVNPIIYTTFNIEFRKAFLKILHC

Compound Nc1nnc(-c2cccc(Cl)c2Cl)c(N)n1 [LAMOTRIGINE] has an ED50 (Mus musculus [1]) of over 60 mg/kg, an ED50 (Mus musculus [2]) of 7.47 mg/kg and a TD50 at 0.25 h [3] of 30 mg/kg. It also gave an ED50 (Mus musculus [4]) of over 40 mg/kg, an ED50 (Mus musculus [5]) of over 60 mg/kg and a selectivity ratio [6] of 4.

Work on c1ccc2cc(OCCCCCCN3CCCCC3)ccc2c1 yielded a Ki (Histamine H3 receptor [7]) of 61.8 nM.

In the case of c1ccc2cc(OCCCCCCN3CCCCCC3)ccc2c1, the Ki (Histamine H3 receptor [7]) is reported as 69.3 nM.

In the case of CC1CCN(CCCCCCOc2ccc3ccccc3c2)CC1, the Ki (Histamine H3 receptor [7]) is reported as 92.1 nM.

With CC1CCN(CCCCCOc2cccc3ccccc23)CC1 the Ki (Histamine H3 receptor [7]) was 43.3 nM.

For CC1CCCN(CCCCCOc2cccc3ccccc23)C1 (stereo unspecified), the IC50 (HepG2) was 38600 nM, the Activity (Salmonella typhimurium [8]) was “Non-Toxic” and the Ki (Histamine H3 receptor [7]) was 32.8 nM. For the same compound, the Activity (Salmonella typhimurium [9]) was “Non-Toxic”, the IC50 (IMR-32) was 32300 nM and the inhibition at 25 µM (CYP3A4) was 50%. For the same compound, the IC50 (HEK293) was over 50000 nM.

Work on CCCC(CCC)C(=O)O [VALPROIC ACID] yielded an ED50 (Mus musculus [1]) of 126 mg/kg, an ED50 (Mus musculus [4]) of 220 mg/kg and an ED50 (Mus musculus [5]) of 310 mg/kg.

Clc1ccc(CCCOCCCN2CCCCC2)cc1 [PITOLISANT] showed an inhibition in vivo at 1.25 mg/kg (Rattus norvegicus [10]) of 87.4%.

CC1CCCN(CCCCCOc2ccc3ccccc3c2)C1 (stereo unspecified) gave a Ki (Histamine H3 receptor [7]) of 42.3 nM.

For CC1CCCN(CCCCCCOc2cccc3ccccc23)C1 (stereo unspecified), the Ki (Histamine H3 receptor [7]) was 47.6 nM.

Compound COc1cccc2c1C(=O)c1c(O)c3c(c(O)c1C2=O)C[C@@](O)(C(=O)CO)C[C@@H]3O[C@H]1C[C@H](N)[C@H](O)[C@H](C)O1 [DOXORUBICIN] has an IC50 (HepG2) of 550 nM, an IC50 (IMR-32) of 50 nM and an IC50 (HEK293) of 360 nM.

CC(=O)Oc1ccccc1C(=O)O [ASPIRIN] gave an ED50 (Mus musculus [11]) of 25.2 mg/kg.

With c1ccc2cc(OCCCCCN3CCCCCC3)ccc2c1 the Ki (Histamine H3 receptor [7]) was 57.3 nM.

For c1ccc2c(OCCCCCCN3CCCCCC3)cccc2c1, the Time (Mus musculus [12]) was 87.77 s, the ED50 (Mus musculus [13]) was 21.66 mg/kg and the Ki (Histamine H3 receptor [14]) was 69 nM. The ED50 (Mus musculus [15]) was 28.3 mg/kg, the Ki (Histamine H3 receptor [7]) was 69.3 nM and the ED50 (Mus musculus [11]) was 18.1 mg/kg. The Time (Mus musculus [16]) was 68.64 s.

Compound CC1CCCN(CCCCCCOc2ccc3ccccc3c2)C1 (stereo unspecified) has a Ki (Histamine H3 receptor [7]) of 55.9 nM.

c1ccc2c(OCCCCCCN3CCCCC3)cccc2c1 showed a Ki (Histamine H3 receptor [7]) of 52.9 nM.

For CC1CCN(CCCCCCOc2cccc3ccccc23)CC1, the Ki (Histamine H3 receptor [7]) was 126 nM.

Work on CN1CC[C@]23c4c5ccc(O)c4O[C@H]2[C@@H](O)C=C[C@H]3[C@H]1C5 [MORPHINE] yielded an ED50 (Mus musculus [15]) of 2.38 mg/kg.

Compound c1ccc2cc(OCCCCCN3CCCCC3)ccc2c1 has a Ki (Histamine H3 receptor [7]) of 53.5 nM.

S=C(NC1CCCCC1)N1CCC(c2cnc[nH]2)CC1 [THIOPERAMIDE] gave a Ki (Histamine H3 receptor [17]) of 2.1 nM.

With c1ccc2c(OCCCCCN3CCCCCC3)cccc2c1 the inhibition [18] was 19%, the inhibition [19] was 29% and the Time (Mus musculus [12]) was 91.47 s. The IC50 (Histamine H3 receptor [20]) was 312 nM, the inhibition (Histamine H3 receptor [20]) was “Dose-dependent effect” and the IC50 (HepG2) was 25300 nM. The ED50 (Mus musculus [13]) was 20.47 mg/kg, the ED50 (Mus musculus [15]) was 30.6 mg/kg and the inhibition [21] was 14%. The Activity (Salmonella typhimurium [8]) was “Non-Toxic”, the Ki [22] was 1840 nM and the Activity (Mus musculus [23]) was “inactive”. It also gave a Ki [24] of 2800 nM, an inhibition [25] of 12% and a Kb (Histamine H1 receptor) of 708 nM. The ED50 (Rattus norvegicus [26]) was 3.68 mg/kg, the Ki (Histamine H3 receptor [7]) was 21.9 nM and the Activity [27] was “inactive”. The Ki [28] was 2610 nM, the inhibition [29] was 17% and the Activity (Salmonella typhimurium [9]) was “Non-Toxic”. It also gave an IC50 (IMR-32) of 35700 nM, an inhibition at 25 µM (CYP3A4) of 50% and an ED50 (Mus musculus [11]) of 20.8 mg/kg. For the same compound, the Time (Mus musculus [30]) was 83.61 s, the Activity [31] was “inactive” and the inhibition [32] was -10%. The inhibition [33] was “Dose-dependent effect” and the IC50 (HEK293) was over 50000 nM.

For CC1CCN(CCCCCOc2ccc3ccccc3c2)CC1, the Ki (Histamine H3 receptor [7]) was 95 nM.
